viability, T/C and IC50 data for ten molecules are collected here from PubChem BioAssay AID1963843 (Molecular Pharmacology Branch, DTP, NCI, 2024).

Values joined by “and” are separate entries in the source; they are usually repeats but may differ in a detail not shown here. Equal values may be shown once.

For the assay, the system named is 616215-338-R-J1-PDC complex spheroid viability. In words: Anticancer human tumor 616215-338-R-J1-PDC patient-derived colon adenocarcinoma cell line growth inhibition [POLQ]. As to conditions: for viability, T/C: stronger effect = lower value. As to the method: Multicellular complex tumor spheroid response to Polymerase (POL) inhibitors (novobiocin, ART-558, RP6685) in combination with a variety of drugs and investigational agents in selected tumor cell lines
The POL inhibitors (novobiocin, ART-558, and RP6685) were evaluated both individually and in combination with standard of care and investigational anticancer small molecules within a complex spheroid model of solid tumors. . Complex spheroids include a stromal component modeled by human endothelial cells (HUVEC) and fibroblasts modeled by human mesenchymal stem cells (MSCs). The concentration ranges selected for each drug and investigational agent were based upon clinically achievable concentrations if the clinical Cmax of the agent was known.
Compounds. The drugs and investigational agents: novobiocin (NSC847541), ART-558 (NSC835418), RP-6685 (NSC848927), peposertib (NSC802822), ceralasertib (NSC780249), elimusertib (NSC800525), camonsertib (NSC841442), AZD-1390 (NSC803789), olaparib (NSC753686), talazoparib (NSC767125), rucaparib (NSC756644), sotorasib (NSC818433), MRTX-1133 (NSC836407), SN-38 (NSC673596), topotecan (NSC609699), epotoside (NSC141540), doxorubicin (NSC123127), gemcitabine (NSC613327), 5-fluorouracil (NSC19893), paclitaxel (NSC125973), vemurafenib (NSC761431), MSA-2 (NSC828583), SN-011 (NSC837082), adavosertib (NSC754352), prexasertib (NSC758257), carboplatin (NSC241240) and oxaliplatin (NSC266046), were obtained from the National Cancer Institute (NCI) Developmental Therapeutics Program Chemical Repository (21). The FDA-approved anticancer drug set is available from the Developmental Therapeutics Program at https://dtp.cancer.gov/organization/dscb/obtaining/. […] The stock solutions were prepared in dimethyl sulfoxide (DMSO, Sigma-Aldrich, St. Louis, MO, cat. D2650), except for the platinum compounds which were prepared in saline (Quality Biological, Gaithersburg, MD, cat. 114-055-101), at 800-fold the tested concentration and stored at -70 degrees C prior to their use. All drugs and investigational agents were tested over a range starting from a high concentration at or near the clinical Cmax and decreasing in half-log increments. If the clinical Cmax for an agent had not been determined, the highest concentration tested was 10 microM, except for SN-38, which was tested at a high concentration of 1 microM.
Cell Culture. All cells were maintained in an incubator at 37 degrees C and 5% CO2 with 95% humidity. The PDC lines were cultured according to standard operating procedures established by the NCI PDMR (https://pdmr.cancer.gov). Table 3 of the manuscript, lists the cell lines along with the number of the three cell types plated to form the mct-spheroids and media for tumor cell growth. After thawing, all PDC lines, except 997537-175-T-J1-PDC and 415267-285-R-J2-PDC, were cultured in Matrigel-coated flasks prepared with a working solution of 1X Ham's F-12 nutrient mix, without supplementation (Thermo Fisher Scientific, cat. 11765054), 100 U/mL penicillin-streptomycin (Thermo Fisher Scientific, cat. 15140122), and 2.5% Matrigel (Corning Inc., Corning, NY, cat. 354248) for the first three passages. The two PDC lines 997537-175-T-J1-PDC and 415267-285-R-J2-PDC were cultured on uncoated flasks. The 857933-349-R-J2-PDC line was cultured in 6C/Colon 1B media containing advanced DMEM/F-12 (Thermo Fisher Scientific, cat. 12634028), 10 mM HEPES (Thermo Fisher Scientific, cat. 15630080), 1X GlutaMAX supplement (Thermo Fisher Scientific, cat. 35050061), 0.1 mg/mL primocin (InvivoGen, San Diego, CA, cat. ant-pm-2), 10% defined fetal bovine serum, heat inactivated (HyClone Laboratories Inc., Logan, UT, cat. SH30070.03HI), 50% L-WRN conditioned media (ATCC, cat. CRL-3276), 1.25 mM N-Acetyl-L-cysteine (Sigma-Aldrich, cat. A9165), 10 mM nicotinamide (Sigma-Aldrich, cat. N0636), 1X B-27 supplement (Thermo Fisher Scientific, cat. 17504044), 1X N-2 supplement (Thermo Fisher Scientific, cat. […]

[1] abbreviates: compound alone, run of 12/05/2023.
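Further: spheroids exposed to compounds for one week before readout.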
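Wherever viability, T/C is given: percent viability relative to DMSO vehicle wells taken as 100%.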

For orientation: viability, T/C means the result in the treated group divided by that in the control group, in per cent. As a reminder, the IC50 is the concentration at which inhibition is half-maximal. As for `COc1cc(C2c3cc4c(cc3C(OC3OC5COC(C)OC5C(O)C3O)C3COC(=O)C23)OCO4)cc(OC)c1O` (stereo not given), the viability, T/C by setting is: (compound 0.0316 µM) 96.8% and 101% and 99.5%; (compound 0.1 µM) 107% and 95.5% and 104%; (compound 0.316 µM) 86.7% and 58% and 91.3%; (compound 1 µM) 88.7% and 52.2% and 78.8%; (compound 3.16 µM) 76.6% and 46.9% and 73%; (compound 10 µM) 46.8% and 28.6% and 54.6%. Besides, for the setting “curve of compound”, the IC50 was 9060 nM and 1040 nM and > 10000 nM.

As for `COc1ccc([C@@H](O)c2cc(-c3ncnc4cc(N5CCOCC5)ccc34)c(F)cc2Cl)nn1`, the viability, T/C (compound 0.0316 µM) is 115% and 87.7% and 103%; the viability, T/C (compound 0.1 µM) was 107% and 104% and 100%; the viability, T/C (compound 0.316 µM) is 105% and 93.9% and 110%; the viability, T/C (compound 1 µM) was 93.6% and 86.9% and 104%; the viability, T/C (compound 3.16 µM) was 100% and 81.2% and 104%; the viability, T/C (compound 10 µM) is 69.3% and 54.8% and 75.3%. The IC50 (curve of compound) was greater than 10000 nM.

For the molecule `COc1cccc(OCCCN)c1-c1cc(Nc2cnc(C#N)cn2)n[nH]1`, the viability, T/C reads like this: (compound 0.00316 µM) 95.5% and 106% and 104%; (compound 0.01 µM) 101% and 98.7% and 97.4%; (compound 0.0316 µM) 88.6% and 68.9% and 76.7%; (compound 0.1 µM) 86.1% and 63.8% and 55.3%; (compound 0.316 µM) 64.6% and 33.6% and 49.9%; (compound 1 µM) 55.9% and 30.1% and 34.7%. Where the note is “curve of compound”, the IC50 was > 1000 nM and 150 nM and 201 nM.

In the case of `COc1cccc2c1C(=O)c1c(O)c3c(c(O)c1C2=O)CC(O)(C(=O)CO)CC3OC1CC(N)C(O)C(C)O1` (stereo not given), the viability, T/C was 95.8% and 65% and 107% (compound 0.0316 µM); 89.2% and 52.3% and 101% (compound 0.1 µM); 78.2% and 37.8% and 76.8% (compound 0.316 µM); 60.1% and 25.3% and 60.5% (compound 1 µM); 7.28% and 2.34% and 9.83% (compound 3.16 µM); 0.55% and 0.17% and 0.93% (compound 10 µM). Further, the IC50 (curve of compound) is 1190 nM and 133 nM and 1060 nM.

Turning to `Cc1cccc(N(C)C(=O)C2C(O)CCN2c2nc(C)cc(C(F)(F)F)c2C#N)c1` (stereo not given), the viability, T/C (compound 0.0316 µM) is 97.4% [middle of 13 runs]; the viability, T/C (compound 0.1 µM) is 99% [middle of 13 runs]; the viability, T/C (compound 0.316 µM) is 100% [middle of 13 runs]; the viability, T/C (compound 1 µM) is 105% [middle of 13 runs]; the viability, T/C (compound 3.16 µM) is 104% [middle of 13 runs]; the viability, T/C (compound 10 µM) is 102% [middle of 12 runs]. The IC50 is, setting by setting: (compound alone, run of 11/27/2023) greater than 10000 nM; under setting [1], greater than 10000 nM.

For the molecule `Cn1ncnc1[C@H]1c2n[nH]c(=O)c3cc(F)cc(c23)N[C@@H]1c1ccc(F)cc1`, the viability, T/C by setting is: (compound 0.000316 µM) 90.3% and 102% and 97.5%; (compound 0.001 µM) 104% and 91.8% and 103%; (compound 0.00316 µM) 102% and 98.1% and 97.2%; (compound 0.01 µM) 94% and 95.9% and 104%; (compound 0.0316 µM) 110% and 96.1% and 101%; (compound 0.1 µM) 105% and 87.5% and 106%. Also, the IC50 (curve of compound) is greater than 100 nM.

Turning to `Nc1ccc(C#CCN(C(=O)Cc2ncc(C(F)(F)F)cc2C(F)(F)F)c2ccc(F)cc2)nn1`, the viability, T/C was 103% [middle of 13 runs] (compound 0.0316 µM); 104% [middle of 13 runs] (compound 0.1 µM); 105% [middle of 13 runs] (compound 0.316 µM); 102% [middle of 13 runs] (compound 1 µM); 102% [middle of 13 runs] (compound 3.16 µM); 94.5% [middle of 13 runs] (compound 10 µM). The IC50 under setting [1] was greater than 10000 nM.

Take `Nc1ccn(C2OC(CO)C(O)C2(F)F)c(=O)n1` (stereo not given): the viability, T/C by setting is: (compound 0.0316 µM) 49.9% and 23.8% and 51.6%; (compound 0.1 µM) 31.7% and 15.1% and 34.2%; (compound 0.316 µM) 23.7% and 12.2% and 23.2%; (compound 1 µM) 30.1% and 13.1% and 30.2%; (compound 3.16 µM) 31.8% and 14.3% and 32.1%; (compound 10 µM) 34.7% and 16.4% and 33.6%. Also, the IC50 (curve of compound) was less than 31.6 nM.

`O=C(c1cc(Cc2n[nH]c(=O)c3ccccc23)ccc1F)N1CCN(C(=O)C2CC2)CC1`: the viability, T/C was 89.5% and 67.6% and 97.3% (compound 0.0316 µM); 103% and 72.8% and 110% (compound 0.1 µM); 102% and 71.6% and 106% (compound 0.316 µM); 101% (2×) and 72.6% (compound 1 µM); 101% and 73.1% and 87.7% (compound 3.16 µM); 99.3% and 58.1% and 60.9% (compound 10 µM). In addition, under “curve of compound”, the IC50 was greater than 10000 nM.

Consider `O=c1[nH]cc(F)c(=O)[nH]1`, for which the viability, T/C was 83.7% and 97.8% and 96% (compound 0.0316 µM); 96.6% and 86.5% and 89.8% (compound 0.1 µM); 68.4% and 54.6% and 65.8% (compound 0.316 µM); 65.9% and 43.5% and 65.6% (compound 1 µM); 63.8% and 43.7% and 60.7% (compound 3.16 µM); 62.4% and 39.2% and 60.1% (compound 10 µM).
